Test results taken from patent US20230365533A1, “BICYCLOHEPTANE PYRROLIDINE OREXIN RECEPTOR AGONISTS” (MERCK SHARP & DOHME CORP., priority 2021, published 2023).

The molecules below were run against T1, human OX2R (Homo sapiens, UniProt O43614) (assay: IPOne (IP-1) orexin receptor agonist assay in CHO cells expressing human OX2R). Conditions: IPOne assay, CHO cells expressing human OX2R, 2 hours incubation; read-out: hoX2R_IP IC50.
T1 construct: expressed in transfected cells; host or cells: CHO (Chinese hamster ovary) cells, grown under G418 selection
T1 sequence (O43614 1-444): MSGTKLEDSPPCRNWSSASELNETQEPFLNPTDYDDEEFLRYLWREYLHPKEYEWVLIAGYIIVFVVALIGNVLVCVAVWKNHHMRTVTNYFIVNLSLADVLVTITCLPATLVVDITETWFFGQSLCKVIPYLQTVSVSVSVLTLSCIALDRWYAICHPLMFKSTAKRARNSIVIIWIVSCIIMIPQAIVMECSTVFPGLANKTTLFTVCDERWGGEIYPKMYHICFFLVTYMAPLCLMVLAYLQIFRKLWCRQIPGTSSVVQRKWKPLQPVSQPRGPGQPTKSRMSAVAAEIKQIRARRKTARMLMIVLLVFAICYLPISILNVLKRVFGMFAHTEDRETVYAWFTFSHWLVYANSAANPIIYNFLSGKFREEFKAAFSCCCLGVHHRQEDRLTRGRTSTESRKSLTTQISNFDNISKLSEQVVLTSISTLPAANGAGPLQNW
Assay type: cell-based
Text: The utility of the compounds in accordance with the present invention as orexin receptor OX1R and/or OX2R agonists may be readily determined without undue experimentation by methodology well known in the art. Both the OX1R and/or OX2R G-coupled protein receptors (GPCRs) couple through the Gaq signaling pathway, which ultimately promotes calcium mobilization via inositol triphosphate (IP3) production. The half-life of IP-3 is relatively short, being rapidly metabolized to inositol monophosphate (IP-1), which can be readily detected using a commercially available assay kit (IP-One; Cisbio; cat #621PAPEC) coupled with a cell line expressing the target receptor(s) of interest. The utility of the compounds in accordance with the present invention as orexin receptor OX1R and/or OX2R agonists may be determined utilizing this assay.
In a typical experiment, the OX1 and OX2 receptor agonist activity is determined in accordance with the following general experimental method. Chinese hamster ovary (CHO) cells expressing human OX1R and/or the human OX2R were grown in Iscove's modified DMEM containing glutaMAX™, 1% G418, 100 U/mL penicillin, 100 μg/mL streptomycin and 10% heat-inactivated qualified fetal bovine serum (FBS). The OX2R cells were seeded at 10,000 cells/well/50 μL and the OX1R cells were seeded at 20,000 cells/well/50 μL into 384-well white tissue culture plates (Greiner; cat #781080). All cell/media reagents were from GIBCO-Invitrogen Corp. The seeded cell plate(s) were incubated at 37° C. with 5% CO2 and 85% humidity for 20-24 hours. On the day of the assay, assay-ready compound plates were prepared using an acoustic liquid handler (ECHO; Labcyte), which dispensed sufficient volume of test compound stock (10 mM in DMSO) or 100% DMSO to prepare 10 point, ½-log dilutions in a final volume of 202.5 nL/well in all test wells of a 384-well diamond plate (Labcyte). Following completion of assay-ready plates, importantly, the next three steps were performed with minimal delay: 1) 20 μl of 1×stimulation buffer was added to the compound plate using a Multidrop Combi (small cassette, Thermo Fisher Scientific cat #24073290); 2) culture medium was removed from the cell plate using the Bluewasher plate washer (gentle spin; BlueCatBio); 3) 14 μl of compound/stimulation buffer mixture was added to the cell plate using a Bravo liquid handler (Agilent) prior to incubating cell plates at 37° C. with 5% CO2 and 85% humidity for 1 or 2 hours (OX1R and OX2R, respectively). During this incubation, IP-one detection reagents were prepared (38:1:1 lysis buffer:D2:AB-cryptate reagents). Six μL of mixed detection reagents were added to the cell plate using a Multidrop Combi (small cassette, Thermo Fisher Scientific cat #24073290) and incubated 60 minutes at room temperature in the dark. Fluorescence signal was detected using an Envision plate reader (Perkin Elmer) [LANCE/DELFIA Dual Enh (Em: APC 665; Ex: Cy5 620)].
For each compound, data were fit to a four parameter logistic fit (ActivityBase software) and the EC50 was reported as the inflection point of the resulting curve. Percent effect for each test compound was determined as the percentage of sample raw value/mean max effect, where the mean max effect was derived from the mean raw value of 32 control wells per assay plate (using Orexin A (cat #003-30) at 1 μM for human OX1R and a reference compound at 1 uM with 100% activity previously established by comparison to Orexin A for human OX2R). The intrinsic orexin receptor agonist activity of a compound which may be used in the present invention may be determined by these assays.

| SMILES | IC50 [nM] |
| --- | --- |
| CCS(=O)(=O)N[C@H]1C[C@@H](C(F)F)N(C(=O)OC)[C@H]1COC1CCC2(c3ncc(F)cn3)CC2C1 (stereo partly drawn) [Example 117, methyl (2R,3S,5S)-5-(difluoromethyl)-3-(ethylsulfonamido)-2-(((6-(5-fluoropyrimidin-2-yl)bicyclo[4.1.0]heptan-3-yl)oxy)methyl)pyrrolidine-1-carboxylate] | 1.2 |
| C[C@@H]1C[C@H](NS(C)(=O)=O)[C@H](CO[C@H]2CC[C@@]3(c4ncc(F)cn4)C[C@H]3C2)N1C(=O)OCC1(C)CC1(F)F (stereo partly drawn) [Example 57, (2,2-difluoro-1-methylcyclopropyl)methyl (2R,3S,5R)-2-((((1S,3S,6R)-6-(5-fluoropyrimidin-2-yl)bicyclo[4.1.0]heptan-3-yl)oxy)methyl)-5-methyl-3-(methylsulfonamido)pyrrolidine-1-carboxylate] | 1.4 |
| C[C@@H]1C[C@H](NS(C)(=O)=O)[C@H](CO[C@H]2CC[C@@]3(c4ncc(F)cn4)C[C@H]3C2)N1C(=O)OCC(F)(F)F [Example 65, 2,2,2-trifluoroethyl (2R,3S,5R)-2-((((1S,3S,6R)-6-(5-fluoropyrimidin-2-yl)bicyclo[4.1.0]heptan-3-yl)oxy)methyl)-5-methyl-3-(methylsulfonamido)pyrrolidine-1-carboxylate] | 1.6 |
| COC(=O)N1[C@H](C)C[C@H](NS(C)(=O)=O)[C@@H]1COC1CCC2(c3nc4c(F)ccc(F)c4s3)CC2C1 (stereo partly drawn) [Example 71, methyl (2R,3S,5R)-2-(((6-(4,7-difluorobenzo[d]thiazol-2-yl)bicyclo[4.1.0]heptan-3-yl)oxy)methyl)-5-methyl-3-(methylsulfonamido)pyrrolidine-1-carboxylate] | 832 |
| C[C@@H]1C[C@H](NS(C)(=O)=O)[C@H](CO[C@H]2CC[C@@]3(c4ncc(F)cn4)C[C@H]3C2)N1C(=O)OCC1(F)CCC1 [Example 53, (1-fluorocyclobutyl)methyl (2R,3S,5R)-2-((((1S,3S,6R)-6-(5-fluoropyrimidin-2-yl)bicyclo[4.1.0]heptan-3-yl)oxy)methyl)-5-methyl-3-(methylsulfonamido)pyrrolidine-1-carboxylate] | 6.1 |
| CC(C)OC(=O)N1CCC[C@H](NS(=O)(=O)C2CC2)[C@@H]1COC1CCC2(c3ncc(F)cn3)CC2C1 (stereo partly drawn) [Example 122, isopropyl (2R,3S)-3-(cyclopropanesulfonamido)-2-(((6-(5-fluoropyrimidin-2-yl)bicyclo[4.1.0]heptan-3-yl)oxy)methyl)piperidine-1-carboxylate] | 6.1 |

Further lines, results first:

| IC50 [nM] | SMILES |
| --- | --- |
| 1.4 | CC(C)OC(=O)N1[C@H](C(F)F)C[C@H](NS(C)(=O)=O)[C@@H]1CO[C@H]1CC[C@@]2(c3ncc(F)cn3)C[C@H]2C1 [Example 119, isopropyl (2R,3S,5S)-5-(difluoromethyl)-2-((((1S,3S,6R)-6-(5-fluoropyrimidin-2-yl)bicyclo[4.1.0]heptan-3-yl)oxy)methyl)-3-(methylsulfonamido)pyrrolidine-1-carboxylate] |
| 173 | COC(=O)N1[C@H](C)C[C@H](NS(=O)(=O)Cc2ccccc2)[C@@H]1CO[C@@H]1CC[C@]2(c3ncc(F)cn3)C[C@@H]2C1 [Example 45, methyl (2R,3S,5R)-2-((((1R,3R,6S)-6-(5-fluoropyrimidin-2-yl)bicyclo[4.1.0]heptan-3-yl)oxy)methyl)-5-methyl-3-((phenylmethyl)sulfonamido)pyrrolidine-1-carboxylate] |
| 1 | CC(C)OC(=O)N1[C@H](C)C[C@H](NS(=O)(=O)CF)[C@@H]1COC1CCC2(c3ncc(F)cn3)CC2C1 (stereo partly drawn) [Example 111, isopropyl (2R,3S,5R)-3-((fluoromethyl)sulfonamido)-2-(((6-(5-fluoropyrimidin-2-yl)bicyclo[4.1.0]heptan-3-yl)oxy)methyl)-5-methylpyrrolidine-1-carboxylate] |
| 13.8 | CCS(=O)(=O)N[C@H]1C[C@@H](C)N(C(=O)OC)[C@H]1CO[C@@H]1CC[C@]2(c3ncc(F)cn3)C[C@@H]2C1 [Example 47, methyl (2R,3S,5R)-3-(ethylsulfonamido)-2-((((1R,3R,6S)-6-(5-fluoropyrimidin-2-yl)bicyclo[4.1.0]heptan-3-yl)oxy)methyl)-5-methylpyrrolidine-1-carboxylate] |
